Experimental findings from PMC9198979, “Polymeric Nanotubes as Drug Delivery Vectors—Comparison of Covalently and Supramolecularly Assembled Constructs” (Biomacromolecules, 2022) are described below.

The series in a line: In vivo pharmacokinetics of 14C-radiolabelled compounds after IV dosing (plasma and urine radioactivity). Also noted: species or system male Sprague Dawley rats. The note with it: rat. The protocol: All animal experimental protocols were approved by the Monash Institute of Pharmaceutical Sciences Animal Ethics Committee, Monash University, Parkville, VIC, Australia. Male Sprague Dawley rats (250–350 g) were used. Animals were maintained on a 12 h light/dark cycle at all times and after transport were acclimatized for 7 days at the facility prior to in vivo studies. […] Urine samples were collected at the 24 h timepoint, and a 50 μL of the sample was transferred to a vial, 4 mL of Ultima Gold added and counted using the scintillator. A blank urine sample prior to dosage was also collected and analyzed to account for background radiation. The pharmacokinetic parameters were determined using non-compartmental analysis with Excel software using the PK Solver add-in (NCA IV Bolus model). […] AUC0-t, elimination half-life (t1/2), volume of distribution at steady state (Vd ss), and clearance rate (Cl) were calculated with this approach. For the linear compound, the 1440 min timepoint was omitted from parameter fitting due to the very low radioactivity for this measurement. The ^14C-radiolabeled compounds were injected intravenously into male Sprague-Dawley rats at a nominal dose of radioactivity (1 μCi, varying 0.82–2.78 mg dose of the sample) and blood samples taken over the course of 24 h to monitor the plasma concentration time profiles.

As to (PNAM50-co-NAS2.5)140 [BB], the “Cl (clearance rate)” value worked out at 0.342 ± 0.102 mL h^–1.
As for PNAM100-co-NAS5 [linear], the “Cl (clearance rate)” value was determined as 16.9 ± 0.91 mL h^–1.
